Results published in patent publication US12577217B2, “15-PGDH inhibitor” (KYORIN Pharmaceutical Co., Ltd., priority 2019, dated 2026).

Molecular target: T1, recombinant human 15-PGDH (Homo sapiens, UniProt P15428)
T1 construct: purchased R&D Systems
T1 sequence (P15428 1-266): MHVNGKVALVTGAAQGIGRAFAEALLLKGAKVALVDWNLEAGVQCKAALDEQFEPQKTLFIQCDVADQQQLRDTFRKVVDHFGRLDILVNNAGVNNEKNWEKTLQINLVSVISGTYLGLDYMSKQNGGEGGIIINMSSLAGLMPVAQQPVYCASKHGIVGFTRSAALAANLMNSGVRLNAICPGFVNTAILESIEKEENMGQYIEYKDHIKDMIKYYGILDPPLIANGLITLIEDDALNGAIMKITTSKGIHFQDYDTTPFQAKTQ
Experiment: 15-PGDH enzyme inhibition test
Type: biochemical
Conditions: 4 nM recombinant human 15-PGDH, 30 μM PGE2, 1 mM NAD+, 60 minutes after starting the reaction; read-out: IC50 Value
Method in brief: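 4 nM recombinant human enzyme pre-incubated with compound 12 min at room temperature in 50 mM Tris-HCl pH 8.0 with 0.01% Tween 20 and 0.01% bovine gamma globulin. Reaction started with 30 μM PGE2 and 1 mM NAD+, read after 60 min by fluorescence (ex 340/em 440 nm). IC50 from concentration-response curve.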

| SMILES | IC50 [nM] |
| --- | --- |
| O=C(O)c1ccc(N2CCOc3cc(C(=O)N4CCCCC4)ccc32)nc1 [Example 2-21] | < 10 |
| CN1Cc2cc(N3CCOc4cc(C(=O)N5CCCCC5)cnc43)ncc2C1=O [Example 1-103] | < 10 |
| Cn1nc2cc(N3CCOc4cc(C(=O)N5CCCC(C)(F)C5)cnc43)ccn2c1=O (single isomer, unassigned) [23-2 Isomer A] | < 10 |
| Cn1nc2cc(N3CCCc4cc(C(=O)N5Cc6ccccc6C5)cnc43)ccn2c1=O [Example 8-131] | < 10 |
| O=C(c1cnc2c(c1)OCCN2c1ccn2c(=O)n(-c3ccccc3)nc2c1)N1CCCCC1 [Example 21-1, 2-Phenyl-7-(7-(piperidine-1-carbonyl)-2,3-dihydro-4H-pyrido[3,2-b] [1,4]oxazin-4-yl)-[1,2,4]triazolo[4,3-a]pyridin-3 (2H)-one] | < 10 |
| O=C(NCC1COC1)c1ccc(N2CCCc3cc(C(=O)N4CCCCC4)cnc32)cc1F [Example 1-61] | < 10 |
| O=C(c1cnc2c(c1)OCCN2c1ccc(-c2nnn[nH]2)cc1)N1CCCCC1 [Example 14-10] | < 10 |
| CN1Cc2nc(N3CCOc4cc(C(=O)N5CCCCC5)cnc43)ccc2C1=O [Example 1-102] | 10 to 100 |
| CCn1nc2cc(N3CCOc4cc(C(=O)N5CCN(C(=O)OC(C)(C)C)CC5)cnc43)ccn2c1=O [Example 8-220] | > 100 |
| O=C(c1cnc2c(c1)OCCN2c1ccc2cccnc2c1)N1CCCCC1 [Example 1-257] | < 10 |
| Cn1nc2cc(N3CCCOc4cc(C(=O)N5CCC5)cnc43)ccn2c1=O [Example 8-57] | < 10 |
| CCN1Cc2cc(N3CCCc4cc(C(=O)N5CCCC(C)(F)C5)cnc43)ccc2C1=O (stereo not drawn) [Example 8-81] | < 10 |
| CC1CN(C(=O)c2cnc3c(c2)OCCN3c2ccc3c(c2)CN(C)C3=O)CCC1(F)F (stereo not drawn) [Example 8-210] | < 10 |
| CCN1Cc2cc(N3CCCc4cc(C(=O)N5CCOCC5)cnc43)ccc2C1=O [Example 8-72] | < 10 |
| O=C(c1cnc2c(c1)CCCN2c1ccc2c(c1)CN(C1CC1)C2=O)N1CCC(F)(F)CC1 [Example 1-213] | < 10 |
| CN1Cc2cc(N3CCOc4cc(C(=O)N5CC=CCC5)cnc43)ccc2C1=O [Example 8-191] | < 10 |
| Cc1cc(N2CCOc3cc(C(=O)N4CCCCC4)cnc32)ccc1C(=O)O [Example 4-16] | < 10 |
| CC1CCN(C(=O)c2cnc3c(c2)OCCN3c2ccc3c(c2)CN(C)C3=O)CC1 [Example 8-194] | < 10 |
| CCN1Cc2cc(N3CCCc4cc(C(=O)N5CCC[C@H](CF)C5)cnc43)ccc2C1=O [Example 8-92] | < 10 |
| C[C@H]1CCCN(C(=O)c2cnc3c(c2)OCCN3c2ccc3c(c2)CN(C)C3=O)C1 [Example 8-198] | < 10 |
| Cn1cnc2cc(N3CCCc4cc(C(=O)N5CCC(F)(F)CC5)cnc43)ccc2c1=O [Example 1-88] | < 10 |
| O=C(c1cnc2c(c1)OCCN2c1ccn2c(=O)n(Cc3ccc(F)cc3F)nc2c1)N1CCC(F)(F)CC1 [Example 27-5] | < 10 |
| O=C(O)c1ccc(N2CC[S+]([O-])c3cc(C(=O)N4CCCCC4)ccc32)cc1 (stereo not drawn) [Example 2-16] | 10 to 100 |
| O=C(c1cnc2c(c1)CCCN2c1ccc2c(c1)CN(C1COC1)C2=O)N1CCC(F)(F)CC1 [Example 1-178] | < 10 |
| CNC(=O)c1ccc(N2CCOc3cc(C(=O)N4CCCCC4)cnc32)cc1C [Example 6-12] | > 100 |
| Cn1ccc2ccc(N3CCOc4cc(C(=O)N5CCCCC5)cnc43)cc21 [Example 1-91] | 10 to 100 |
| COCCNC(=O)c1cnc2c(c1)OCCN2c1ccn2c(=O)n(C)nc2c1 [Example 8-105] | < 10 |
| N#Cc1ccc(N2CCOc3cc(C(=O)N4CCCCC4)cnc32)cc1 [Example 1-241] | < 10 |
| O=C(O)c1ccc(N2CCOc3nc(C(=O)N4CCCCC4)ccc32)cc1 [Example 4-4] | < 10 |

Continued, values first:

| IC50 [nM] | SMILES |
| --- | --- |
| < 10 | Cn1nc2cc(N3CCCc4cc(C(=O)N5CC=CCC5)cnc43)ccn2c1=O [Example 8-129] |
| < 10 | CC1c2cc(N3CCOc4cc(C(=O)N5CCCCC5)cnc43)ccc2C(=O)N1C (single isomer, unassigned) [16-1 Isomer A] |
| < 10 | O=C(O)c1ccc(N2CCCSc3cc(C(=O)N4CCCCC4)ccc32)cc1 [Example 2-18] |
| < 10 | CN1Cc2cc(N3CCOc4cc(C(=O)N5CCC5)cnc43)ccc2C1=O [Example 8-184] |
| < 10 | Cn1nc2cc(N3CCCCc4cc(C(=O)N5CCCCC5)cnc43)ccn2c1=O [Example 1-107] |
| < 10 | NC(=O)c1ccc(N2CCOc3cc(C(=O)N4CCCCC4)ccc32)cn1 [Example 6-3] |
| < 10 | CCCN1Cc2cc(N3CCOc4cc(C(=O)N5CCCCC5)cnc43)ccc2C1=O [Example 1-222] |
| < 10 | Cn1nc2cc(N3CCOc4cc(SC5CCCCC5)cnc43)ccn2c1=O [Example 1-110] |
| < 10 | O=C(O)C1CCC(N2CCOc3cc(C(=O)N4CCCCC4)ccc32)CC1 (stereo not drawn) [Example 4-14] |
| 10 to 100 | Cn1nc2cc(N3CCOc4cc(C(=O)N5CCC(F)(F)CC5)sc43)ccn2c1=O [Example 8-223] |
| < 10 | O=C(c1cnc2c(c1)OCCN2c1ccc2ccncc2c1)N1CCCCC1 [Example 1-260] |
| 10 to 100 | CN1C(=O)c2cc(N3CCOc4cc(C(=O)N5CCCCC5)cnc43)ccc2S1(=O)=O [Example 1-164] |
| < 10 | COC(=O)c1ccc(N2CCc3cc(C(=O)N4CCCCC4)ccc32)cc1 [Example 1-140] |
| < 10 | O=C1NCc2cc(N3CCOc4cc(C(=O)N5CCCCC5)cnc43)ncc21 [Example 14-9] |
| < 10 | O=C(c1cnc2c(c1)CCCN2c1ccc2c(=O)[nH]cnc2c1)N1CCC(F)(F)CC1 [Example 8-96] |
| < 10 | O=C(c1ccc2c(c1)OCCN2c1ccccc1)N1CCCCC1 [Example 1-18] |
| < 10 | CCn1nc2cc(N3CCOc4cc(C(=O)N5CC=CCC5)cnc43)ccn2c1=O [Example 8-217] |
| < 10 | Cn1nc2cc(N3CCCc4cc(C(=O)N5CCC[C@@H](F)C5)cnc43)ccn2c1=O [Example 8-137] |
| < 10 | CCOCn1nc2cc(N3CCOc4cc(C(=O)N5CCCCC5)cnc43)ccn2c1=O [Example 1-268] |
| < 10 | CCOCCN1Cc2cc(N3CCCc4cc(C(=O)N5CCCCC5)cnc43)ccc2C1=O [Example 1-63] |
| < 10 | COC(=O)c1ccc(N2CCOc3cc(C(=O)N4CCCCC4)ccc32)cc1 [Example 1-7] |
| < 10 | CNC(=O)c1ccc(N2CCOc3cc(C(=O)N4CC=CCC4)ccc32)cc1OC [Example 5-3] |
| < 10 | Cn1cnc2cc(N3CCOc4cc(C(=O)N5CCC(F)(F)CC5)cnc43)ccc2c1=O [Example 1-226] |
| < 10 | O=C(c1ccc2c(c1)OCCN2c1ccc2c(=O)[nH]cnc2c1)N1CCC(F)(F)CC1 [Example 1-152] |
| 10 to 100 | O=C(c1cnc2c(c1)CCCN2c1cc2c(cn1)C(=O)N(CC1COC1)C2)N1CCCCC1 [Example 1-168] |
| < 10 | NC(=O)c1ccc(N2CCOc3cc(C(=O)N4CCCCC4)ccc32)nc1 [Example 6-2] |
| < 10 | Cn1nc2cc(N3CCOc4cc(C(=O)N5CCC[C@@H](O)C5)cnc43)ccn2c1=O [Example 8-33] |
| < 10 | COCn1nc2cc(N3CCCc4cc(C(=O)N5CCC[C@@H](C(F)F)C5)cnc43)ccn2c1=O [Example 8-119] |
